Experimental data: paper PMC6688997 (Nature Communications, 2019)

Legend:
Format in all cases: biochemical
NuaK1 = NuaK1 (Homo sapiens, UniProt O60285); assay: Kinase assay, ATP Km
BRK [1] = biological target: T1, BRK (Homo sapiens, UniProt Q13882); assay: Kinase assay, ATP Km
T1 construct: purchased Carna Biosciences

RSK2 = RSK2 (Homo sapiens, UniProt P51812); assay: Kinase assay, ATP Km
PAK2 = biological target: T2, PAK2 (Homo sapiens, UniProt Q13177); assay: Kinase assay, ATP Km
T2 construct: purchased Carna Biosciences

PKD3 = biological target: T3, PKD3 (Homo sapiens, UniProt O94806); assay: Kinase assay, ATP Km
T3 construct: purchased Carna Biosciences

CK1α [2] = biological target: T4, CK1α (Homo sapiens, UniProt P48729); assay: Kinase assay, ATP Km
T4 sequence (P48729 whole entry): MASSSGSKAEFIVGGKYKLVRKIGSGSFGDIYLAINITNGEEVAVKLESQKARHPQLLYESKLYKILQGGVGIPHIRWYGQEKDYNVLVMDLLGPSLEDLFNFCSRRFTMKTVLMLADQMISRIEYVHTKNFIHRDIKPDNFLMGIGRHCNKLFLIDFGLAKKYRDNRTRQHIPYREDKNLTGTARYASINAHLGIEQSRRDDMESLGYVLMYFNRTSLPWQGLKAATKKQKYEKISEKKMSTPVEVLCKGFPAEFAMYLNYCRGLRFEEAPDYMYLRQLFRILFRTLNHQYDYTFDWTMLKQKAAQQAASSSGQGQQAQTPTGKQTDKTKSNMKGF

PIM2 = PIM2 (Homo sapiens, UniProt Q9P1W9); assay: Kinase assay, ATP Km
BRK [3] = biological target: T1, BRK; assay: Kinase assay, 1 mM ATP
Experimental: (§1) An off-chip mobility shift assay was performed by Carna Biosciences, Inc. (Kobe, Japan), according to their product instructions. […] The IC50 values were estimated according to the four-parameter logistic model.

BRSK1 = BRSK1 (Homo sapiens, UniProt Q8TDC3); assay: Kinase assay, 1 mM ATP
Experimental: as §1

CDC2/CycB1 = CDC2/CycB1 (Homo sapiens, UniProt P06493); assay: Kinase assay, 1 mM ATP
Experimental: as §1

CDC7/ASK = biological target: T5, CDC7/ASK (Homo sapiens, UniProt O00311); assay: Kinase assay, 1 mM ATP
T5 construct: purchased Carna Biosciences
T5 sequence (O00311 whole entry): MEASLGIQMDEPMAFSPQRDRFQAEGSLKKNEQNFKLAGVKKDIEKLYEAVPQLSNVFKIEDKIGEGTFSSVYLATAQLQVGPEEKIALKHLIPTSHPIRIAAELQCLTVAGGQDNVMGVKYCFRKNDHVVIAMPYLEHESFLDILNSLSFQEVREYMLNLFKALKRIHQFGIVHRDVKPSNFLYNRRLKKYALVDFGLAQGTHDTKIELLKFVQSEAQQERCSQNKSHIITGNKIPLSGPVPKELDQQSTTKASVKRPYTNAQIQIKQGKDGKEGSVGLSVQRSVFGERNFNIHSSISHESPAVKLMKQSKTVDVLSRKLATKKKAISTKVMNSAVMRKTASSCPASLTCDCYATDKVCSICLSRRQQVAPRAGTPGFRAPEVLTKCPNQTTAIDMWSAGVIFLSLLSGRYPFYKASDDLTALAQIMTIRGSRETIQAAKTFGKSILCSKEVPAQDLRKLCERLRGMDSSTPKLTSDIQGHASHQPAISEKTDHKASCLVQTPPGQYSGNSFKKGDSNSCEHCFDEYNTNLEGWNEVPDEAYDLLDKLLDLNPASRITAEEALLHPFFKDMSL
T5 sequence (Q9UBU7 whole entry partner): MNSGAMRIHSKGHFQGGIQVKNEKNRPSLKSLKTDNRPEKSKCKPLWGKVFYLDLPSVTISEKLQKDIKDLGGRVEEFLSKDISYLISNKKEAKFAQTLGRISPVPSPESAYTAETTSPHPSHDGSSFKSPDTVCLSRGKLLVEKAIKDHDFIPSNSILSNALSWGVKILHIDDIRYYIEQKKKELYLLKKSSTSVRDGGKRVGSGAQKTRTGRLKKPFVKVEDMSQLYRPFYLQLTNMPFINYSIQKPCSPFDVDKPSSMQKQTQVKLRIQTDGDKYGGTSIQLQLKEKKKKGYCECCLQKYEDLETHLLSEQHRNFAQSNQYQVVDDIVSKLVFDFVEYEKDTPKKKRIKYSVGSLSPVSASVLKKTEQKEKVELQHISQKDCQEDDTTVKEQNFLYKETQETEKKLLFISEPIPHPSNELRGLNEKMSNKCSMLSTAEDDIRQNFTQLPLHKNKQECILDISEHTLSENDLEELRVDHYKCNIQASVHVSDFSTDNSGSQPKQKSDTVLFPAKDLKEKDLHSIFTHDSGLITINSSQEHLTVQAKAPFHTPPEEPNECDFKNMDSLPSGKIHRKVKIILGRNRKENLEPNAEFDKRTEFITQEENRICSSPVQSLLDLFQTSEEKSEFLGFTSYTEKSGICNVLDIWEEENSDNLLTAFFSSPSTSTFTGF
Experimental: as §1

CDK2/CycE1 = CDK2/CycE1 (Homo sapiens, UniProt P24941); assay: Kinase assay, 1 mM ATP
Experimental: as §1

CK1α [4] = biological target: T4, CK1α; assay: Kinase assay, 1 mM ATP
Experimental: as §1

CK1ε = CK1ε (Homo sapiens, UniProt P49674); assay: Kinase assay, 1 mM ATP
Experimental: as §1

CSK = CSK (Homo sapiens, UniProt P41240); assay: Kinase assay, 1 mM ATP
Experimental: as §1

CaMK4 = CaMK4 (Homo sapiens, UniProt Q16566); assay: Kinase assay, 1 mM ATP
Experimental: as §1

EGFR = EGFR (Homo sapiens, UniProt P00533); assay: Kinase assay, 1 mM ATP
Sequence of EGFR (P00533 25-1210): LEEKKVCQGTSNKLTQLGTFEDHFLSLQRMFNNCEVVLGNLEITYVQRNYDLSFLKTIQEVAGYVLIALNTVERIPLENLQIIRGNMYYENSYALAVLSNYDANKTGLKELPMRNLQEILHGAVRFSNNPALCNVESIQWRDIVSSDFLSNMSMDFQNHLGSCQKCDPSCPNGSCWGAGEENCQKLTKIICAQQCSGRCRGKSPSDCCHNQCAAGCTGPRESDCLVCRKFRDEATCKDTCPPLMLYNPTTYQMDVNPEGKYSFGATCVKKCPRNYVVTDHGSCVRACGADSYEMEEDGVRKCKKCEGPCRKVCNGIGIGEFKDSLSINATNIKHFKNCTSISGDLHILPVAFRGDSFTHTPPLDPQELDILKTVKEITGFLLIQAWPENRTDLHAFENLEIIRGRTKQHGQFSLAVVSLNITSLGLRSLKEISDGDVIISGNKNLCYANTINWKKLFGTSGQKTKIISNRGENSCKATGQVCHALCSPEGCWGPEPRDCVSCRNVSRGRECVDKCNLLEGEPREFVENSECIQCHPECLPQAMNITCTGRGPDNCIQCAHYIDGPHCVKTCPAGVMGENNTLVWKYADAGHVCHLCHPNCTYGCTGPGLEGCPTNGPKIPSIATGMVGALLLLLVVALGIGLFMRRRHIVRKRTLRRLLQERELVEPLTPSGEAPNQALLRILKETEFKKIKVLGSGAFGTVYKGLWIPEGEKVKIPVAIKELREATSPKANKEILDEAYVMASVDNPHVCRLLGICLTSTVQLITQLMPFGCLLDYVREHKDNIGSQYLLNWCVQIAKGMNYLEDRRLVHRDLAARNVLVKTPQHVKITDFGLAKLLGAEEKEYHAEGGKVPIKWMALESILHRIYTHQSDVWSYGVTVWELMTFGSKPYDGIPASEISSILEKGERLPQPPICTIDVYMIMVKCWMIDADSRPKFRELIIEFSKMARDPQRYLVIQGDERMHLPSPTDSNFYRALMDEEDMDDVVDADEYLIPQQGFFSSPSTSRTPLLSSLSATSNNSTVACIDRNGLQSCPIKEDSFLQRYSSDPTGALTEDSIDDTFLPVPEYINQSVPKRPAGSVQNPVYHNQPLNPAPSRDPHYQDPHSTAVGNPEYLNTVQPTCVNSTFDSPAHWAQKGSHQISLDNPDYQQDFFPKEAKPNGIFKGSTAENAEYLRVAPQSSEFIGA
Experimental: as §1

EGFR(T790M) = biological target: T6, EGFR(T790M) (Homo sapiens, UniProt P00533, T790M); assay: Kinase assay, 1 mM ATP
T6 construct: purchased Carna Biosciences
Experimental: as §1

EGFR(d746-750) = biological target: T7, EGFR(d746-750) (Homo sapiens, UniProt P00533, DEL746-750); assay: Kinase assay, 1 mM ATP
T7 construct: purchased Carna Biosciences
Experimental: as §1

EPHA4 = biological target: T8, EPHA4 (Homo sapiens, UniProt P54764); assay: Kinase assay, 1 mM ATP
T8 construct: purchased Carna Biosciences
Experimental: as §1

EPHA5 = EPHA5 (Homo sapiens, UniProt P54756); assay: Kinase assay, 1 mM ATP
Experimental: as §1

EPHA6 = EPHA6 (Homo sapiens, UniProt Q9UF33); assay: Kinase assay, 1 mM ATP
Experimental: as §1

FES = FES (Homo sapiens, UniProt P07332); assay: Kinase assay, 1 mM ATP
Experimental: as §1

FLT3 = biological target: T9, FLT3 (Homo sapiens, UniProt P36888); assay: Kinase assay, 1 mM ATP
T9 construct: purchased Carna Biosciences
Experimental: as §1

FLT4 = biological target: T10, FLT4 (Homo sapiens, UniProt P35916); assay: Kinase assay, 1 mM ATP
T10 construct: purchased Carna Biosciences
Experimental: as §1

FRK = biological target: T11, FRK (Homo sapiens, UniProt P42685); assay: Kinase assay, 1 mM ATP
T11 construct: purchased Carna Biosciences
T11 sequence (P42685 whole entry): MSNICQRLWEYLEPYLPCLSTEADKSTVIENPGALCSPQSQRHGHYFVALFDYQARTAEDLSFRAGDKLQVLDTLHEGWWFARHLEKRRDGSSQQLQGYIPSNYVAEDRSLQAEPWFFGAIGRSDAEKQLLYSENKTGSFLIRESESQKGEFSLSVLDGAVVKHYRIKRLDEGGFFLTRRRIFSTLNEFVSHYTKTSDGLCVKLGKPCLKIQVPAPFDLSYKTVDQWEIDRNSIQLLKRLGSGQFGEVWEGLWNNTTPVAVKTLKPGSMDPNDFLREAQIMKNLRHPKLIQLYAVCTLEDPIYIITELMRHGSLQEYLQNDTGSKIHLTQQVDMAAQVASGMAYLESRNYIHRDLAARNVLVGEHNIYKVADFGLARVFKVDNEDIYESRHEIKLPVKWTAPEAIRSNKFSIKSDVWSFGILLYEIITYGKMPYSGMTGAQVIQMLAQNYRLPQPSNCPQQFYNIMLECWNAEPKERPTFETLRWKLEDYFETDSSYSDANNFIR
Experimental: as §1

GSK3β = GSK3β (Homo sapiens, UniProt P49841); assay: Kinase assay, 1 mM ATP
Experimental: as §1

HCK = HCK (Homo sapiens, UniProt P08631); assay: Kinase assay, 1 mM ATP
Experimental: as §1

IGF1R = biological target: T12, IGF1R (Homo sapiens, UniProt P08069); assay: Kinase assay, 1 mM ATP
T12 construct: purchased Carna Biosciences
Experimental: as §1

INSR = biological target: T13, INSR (Homo sapiens, UniProt P06213); assay: Kinase assay, 1 mM ATP
T13 construct: purchased Carna Biosciences
Experimental: as §1

IRR = biological target: T14, IRR (Homo sapiens, UniProt P14616); assay: Kinase assay, 1 mM ATP
T14 construct: purchased Carna Biosciences
Experimental: as §1

JAK1 = biological target: T15, JAK1 (Homo sapiens, UniProt P23458); assay: Kinase assay, 1 mM ATP
T15 construct: purchased Carna Biosciences
Experimental: as §1

KDR = biological target: T16, KDR (Homo sapiens, UniProt P35968); assay: Kinase assay, 1 mM ATP
T16 construct: purchased Carna Biosciences
Experimental: as §1

NEK9 = biological target: T17, NEK9 (Homo sapiens, UniProt Q8TD19); assay: Kinase assay, 1 mM ATP
T17 construct: purchased Carna Biosciences
Experimental: as §1

RSK1 = biological target: T18, RSK1 (Homo sapiens, UniProt Q15418); assay: Kinase assay, 1 mM ATP
T18 construct: purchased Carna Biosciences
Experimental: as §1

SGK = biological target: T19, SGK (Homo sapiens, UniProt O00141); assay: Kinase assay, 1 mM ATP
T19 construct: purchased Carna Biosciences
T19 sequence (O00141 whole entry): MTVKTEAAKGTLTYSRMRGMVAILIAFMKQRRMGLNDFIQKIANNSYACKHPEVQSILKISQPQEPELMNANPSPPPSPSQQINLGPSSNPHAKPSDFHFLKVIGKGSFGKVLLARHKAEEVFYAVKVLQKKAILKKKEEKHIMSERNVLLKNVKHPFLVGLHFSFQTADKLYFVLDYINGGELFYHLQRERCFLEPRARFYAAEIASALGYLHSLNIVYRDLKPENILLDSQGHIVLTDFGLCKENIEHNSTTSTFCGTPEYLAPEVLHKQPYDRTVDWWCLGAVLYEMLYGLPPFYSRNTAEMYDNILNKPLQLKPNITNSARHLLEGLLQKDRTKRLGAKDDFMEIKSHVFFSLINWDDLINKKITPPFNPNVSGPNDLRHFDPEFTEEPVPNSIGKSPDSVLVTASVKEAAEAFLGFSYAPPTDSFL
Experimental: as §1

SYK = SYK (Homo sapiens, UniProt P43405); assay: Kinase assay, 1 mM ATP
Experimental: as §1

TEC = biological target: T20, TEC (Homo sapiens, UniProt P42680); assay: Kinase assay, 1 mM ATP
T20 construct: purchased Carna Biosciences
Experimental: as §1

p38α = p38α (Homo sapiens, UniProt Q16539); assay: Kinase assay, 1 mM ATP
Experimental: as §1

p38β = p38β (Homo sapiens, UniProt Q15759); assay: Kinase assay, 1 mM ATP
Experimental: as §1

p38γ = p38γ (Homo sapiens, UniProt P53778); assay: Kinase assay, 1 mM ATP
Experimental: as §1

p70S6K = p70S6K (Homo sapiens, UniProt P23443); assay: Kinase assay, 1 mM ATP
Experimental: as §1

T1 sequence (Q13882 whole entry): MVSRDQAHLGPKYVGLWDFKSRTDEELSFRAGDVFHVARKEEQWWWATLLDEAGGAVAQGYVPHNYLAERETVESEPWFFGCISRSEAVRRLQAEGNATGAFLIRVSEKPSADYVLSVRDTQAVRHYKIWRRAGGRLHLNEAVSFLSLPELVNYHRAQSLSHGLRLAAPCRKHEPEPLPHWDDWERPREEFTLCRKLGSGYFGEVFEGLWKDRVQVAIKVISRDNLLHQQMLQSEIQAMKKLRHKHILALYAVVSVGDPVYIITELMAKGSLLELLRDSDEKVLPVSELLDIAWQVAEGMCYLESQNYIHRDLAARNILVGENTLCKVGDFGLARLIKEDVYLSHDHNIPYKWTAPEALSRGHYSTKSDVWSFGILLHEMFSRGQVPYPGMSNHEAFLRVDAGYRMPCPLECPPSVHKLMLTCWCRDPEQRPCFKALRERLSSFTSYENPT
Sequence of NuaK1 (O60285 whole entry): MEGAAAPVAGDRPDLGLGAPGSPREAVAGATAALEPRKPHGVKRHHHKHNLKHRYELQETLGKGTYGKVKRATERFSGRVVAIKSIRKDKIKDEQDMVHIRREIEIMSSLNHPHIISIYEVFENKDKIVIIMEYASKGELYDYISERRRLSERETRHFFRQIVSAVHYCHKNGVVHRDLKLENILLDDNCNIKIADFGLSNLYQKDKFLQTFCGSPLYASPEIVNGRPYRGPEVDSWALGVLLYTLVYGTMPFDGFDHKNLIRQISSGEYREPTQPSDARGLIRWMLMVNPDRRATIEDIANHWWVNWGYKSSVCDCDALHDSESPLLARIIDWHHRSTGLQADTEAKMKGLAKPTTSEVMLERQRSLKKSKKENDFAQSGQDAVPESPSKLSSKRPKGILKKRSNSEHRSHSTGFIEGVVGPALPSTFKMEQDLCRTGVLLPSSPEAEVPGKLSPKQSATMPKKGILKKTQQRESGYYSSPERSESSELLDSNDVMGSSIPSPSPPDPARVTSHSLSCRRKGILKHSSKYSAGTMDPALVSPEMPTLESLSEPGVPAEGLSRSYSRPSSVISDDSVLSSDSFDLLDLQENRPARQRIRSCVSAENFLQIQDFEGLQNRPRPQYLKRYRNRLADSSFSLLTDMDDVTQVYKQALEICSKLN

C[C@@H](N)COc1ccc(-c2cnc3ccc(N[C@H](C)c4cccc(F)c4)nn23)cc1.O=C(O)CCCCC(=O)O [DS-6051b]
inhibition at 0.04 µM (NuaK1): 98.6%
% Inhibition (NuaK1; 0.04μM, ATP Km): potently inhibited
inhibition at 0.04 µM (BRK [1]): 31.7%
inhibition at 0.04 µM (RSK2): 8.9%
inhibition at 0.04 µM (PAK2): 4.9%
inhibition at 0.04 µM (PKD3): 3.7%
inhibition at 0.04 µM (CK1α [2]): -0.531%
inhibition at 0.04 µM (PIM2): -2.4%
inhibition at 0.2 µM (BRK [3]): 13.4%
inhibition at 0.2 µM (BRSK1): -4.8%
inhibition at 0.2 µM (CDC2/CycB1): -6.7%
inhibition at 0.2 µM (CDC7/ASK): 8.5%
inhibition at 0.2 µM (CDK2/CycE1): -20.2%
inhibition at 0.2 µM (CK1α [4]): -1%
inhibition at 0.2 µM (CK1ε): -8.9%
inhibition at 0.2 µM (CSK): 1%
inhibition at 0.2 µM (CaMK4): -3.3%
inhibition at 0.2 µM (EGFR): 3.7%
inhibition at 0.2 µM (EGFR(T790M)): -1.6%
inhibition at 0.2 µM (EGFR(d746-750)): -3.4%
inhibition at 0.2 µM (EPHA4): -3.4%
inhibition at 0.2 µM (EPHA5): -9%
inhibition at 0.2 µM (EPHA6): -5.7%
inhibition at 0.2 µM (FES): 5.1%
inhibition at 0.2 µM (FLT3): 18.8%
inhibition at 0.2 µM (FLT4): -4.4%
inhibition at 0.2 µM (FRK): 8.1%
inhibition at 0.2 µM (GSK3β): -23.2%
inhibition at 0.2 µM (HCK): -6%
inhibition at 0.2 µM (IGF1R): 3.4%
inhibition at 0.2 µM (INSR): 9.4%
inhibition at 0.2 µM (IRR): 16.8%
inhibition at 0.2 µM (JAK1): -2%
inhibition at 0.2 µM (KDR): -5.4%
inhibition at 0.2 µM (NEK9): -3.5%
inhibition at 0.2 µM (RSK1): 2.1%
inhibition at 0.2 µM (SGK): -3.8%
inhibition at 0.2 µM (SYK): -2.5%
inhibition at 0.2 µM (TEC): -1.2%
inhibition at 0.2 µM (p38α): -6.7%
inhibition at 0.2 µM (p38β): 0.7%
inhibition at 0.2 µM (p38γ): 0.224%
inhibition at 0.2 µM (p70S6K): 8.3%
